Values of other authors, collected in patent publication US20110171717A1, “METHOD FOR ENHANCING […]” (priority 2006, published 2011).

Tested on: polymerase
Settings: cited from earlier work; for effect on polymerase activity: known from Weyant et al., BioTechniques 1990

Compound	effect on polymerase activity at low concentration (e.g., 0.01% of SDS)	effect on polymerase activity
CCCCCCCCCCCCOS(=O)(=O)[O-].[Na+] [SDS, Sodium dodecyl sulfate]	inhibit a polymerase activity even at low concentrations	inhibit a polymerase activity
CCCCCCCCCCCC(=O)N(C)CC(=O)[O-].[Na+] [sodium N-lauroyl sarcosinate, N-Lauroylsarcosine-sodium salt]		inhibit a polymerase activity
Sodium deoxycholate		inhibit a polymerase activity
